Source: patent publication US20060069132A1, “Azolecarboxamide herbicides” (priority 2004, published 2006)

Key:
wheat = assay: Test B postemergence herbicide test; format: in vivo, Triticum aestivum; set-up: key to Wheat plant response rating: 0 = no effect, 100 = complete control; settings: postemergence
Outline: (§1)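 Scale 0–100: zero equals no visible effect, 100 complete control, judged by eye relative to controls. Timing: 13 to 15 days in greenhouse post-treatment. Growth stage at spraying: two leaves (paddy) or one to four leaves, 2–18 cm (postemergence).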

pigweed = assay: Test B pre-/postemergence herbicide test; format: in vivo, Amaranthus retroflexus; settings: postemergence
Outline: (§2)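 Seeds were planted and treated preemergence with compounds formulated in a non-phytotoxic solvent mixture containing surfactant, while plants at the 1- to 4-leaf stage (2 to 18 cm) received postemergence sprays. Flooded paddy plants were grown to the 2-leaf stage. After 13 to 15 days in a greenhouse, injury was visually rated 0–100 against untreated controls.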

barnyardgrass [1] = assay: Test B flooded paddy test; format: in vivo, Echinochloa crus-galli; settings: 1000 g ai/ha, scale 0 to 100 (0 no effect, 100 complete control)
Outline: (§3)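 Read-out: visual comparison with controls, scored 0 to 100, where 100 means complete control and 0 no effect. Formulated chemicals were applied postemergence to plants 2–18 cm tall (1- to 4-leaf), or to flooded-paddy plants at the 2-leaf stage, then held 13 to 15 days under glass.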

wild oat = assay: Test B postemergence herbicide test; format: in vivo, Avena fatua; settings: postemergence
Outline: as §1

ducksalad = assay: Test B flooded paddy test; format: in vivo, Heteranthera limosa; settings: 1000 g ai/ha, scale 0 to 100 (0 no effect, 100 complete control)
Outline: as §3

velvetleaf = assay: Test B pre-/postemergence herbicide test; format: in vivo, Abutilon theophrasti; settings: for Velvetleaf plant response rating: postemergence
Outline: as §2

Surinam grass = assay: Test B pre-/postemergence herbicide test; format: in vivo, Urochloa decumbens; settings: for Surinam Grass plant response rating: postemergence
Outline: as §2

[2] = test system: small flower umbrella sedge; assay: Test B flooded paddy test; format: in vivo, Cyperus difformis; settings: 1000 g ai/ha, scale 0 to 100 (0 no effect, 100 complete control)
Outline: as §3

cocklebur = assay: Test B pre-/postemergence herbicide test; format: in vivo, Xanthium strumarium; settings: for Cocklebur plant response rating: postemergence, scale 0 (no effect) to 100 (complete control)
Outline: (§4)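 Pre: seeds sown, then sprayed. Post: 1–4-leaf plants (2–18 cm) sprayed at the same time. Paddy: flooded, treated at 2-leaf stage. Formulation: non-phytotoxic solvent with surfactant. Greenhouse 13–15 days; visual 0–100 score relative to controls.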

barnyardgrass [3] = assay: Test B pre-/postemergence herbicide test; format: in vivo, Echinochloa crus-galli; settings: for Barnyardgrass plant response rating: postemergence, scale 0 (no effect) to 100 (complete control)
Outline: as §4

giant foxtail = assay: Test B pre-/postemergence herbicide test; format: in vivo, Setaria faberi; settings: for Foxtail, Giant plant response rating: postemergence
Outline: as §2

rice [4] = assay: Test B pre-/postemergence herbicide test; format: in vivo, Oryza sativa; settings: 0 = no effect, 100 = complete control, preemergence
From the text: Seeds selected from barnyardgrass (Echinochloa crus-galli (L.) Beauv.), Surinam grass (Urochloa decumbens (Staph) R. D. Webster, previously named Brachiaria decumbens Stapf), cocklebur (Xanthium strumarium L.), corn (Zea mays L.), large crabgrass (Digitaria sanguinalis (L.) Scop.), giant foxtail (Setaria faberi Herim.), lambsquarters (Chenopodium album L.), morningglory (Ipomoea coccinea L.), pigweed (Amaranthus retroflexus L.), rice (Oryza sativa L.) and velvetleaf (Abutilon theophrasti Medik.) were planted and treated preemergence with test chemicals formulated in a non-phytotoxic solvent mixture which included a surfactant.
At the same time, plants selected from these crop and weed species and also blackgrass (Alopecurus myosuroides Huds.), wheat (Triticum aestivum L.) and wild oat (Avena fatua L.) were treated with postemergence applications of test chemicals formulated in the same manner. Plants ranged in height from 2 to 18 cm (1- to 4-leaf stage) for postemergence treatments. Plant species in the flooded paddy test consisted of rice (Oryza sativa L.), small flower umbrella sedge (Cyperus difformis L.), ducksalad (Heteranthera limosa (Sw.) Willd.) and barnyardgrass (Echinochloa crus-galli (L.) Beauv.) grown to the 2-leaf stage for testing. Treated plants and controls were maintained in a greenhouse for 13 to 15 days, after which time all species were compared to controls and visually evaluated. Plant response ratings, summarized in Table B, are based on a scale of 0 to 100 where 0 is no effect and 100 is complete control. A dash (-) response means no test result.

rice [5] = assay: Test B flooded paddy test; format: in vivo, Oryza sativa; settings: 1000 g ai/ha, scale 0 to 100 (0 no effect, 100 complete control)
Outline: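 Visual ratings, 0 (no effect) to 100 (complete control), made versus controls after 13–15 d greenhouse. Paddy plants treated at 2-leaf stage; postemergence plants at 1- to 4-leaf stage, 2–18 cm tall.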

morningglory = assay: Test B pre-/postemergence herbicide test; format: in vivo, Ipomoea coccinea; settings: for Morningglory plant response rating: postemergence
Outline: as §4

corn = assay: Test B pre-/postemergence herbicide test; format: in vivo, Zea mays; settings: for Corn plant response rating: postemergence
Outline: as §2

lambsquarters = assay: Test B pre-/postemergence herbicide test; format: in vivo, Chenopodium album; settings: for Lambsquarters plant response rating: postemergence
Outline: as §2

large crabgrass = assay: Test B pre-/postemergence herbicide test; format: in vivo, Digitaria sanguinalis; settings: for Crabgrass, Large plant response rating: postemergence
Outline: as §2

blackgrass = assay: Test B postemergence herbicide test; format: in vivo, Alopecurus myosuroides; settings: postemergence, visual rating, scale 0 (no effect) to 100 (complete control)
Outline: as §3

[6] = 125 g ai/ha, visual rating, scale 0 (no effect) to 100 (complete control)
[7] = 500 g ai/ha, scale 0 to 100, 0 is no effect, 100 is complete control
[8] = 125 g ai/ha, 0 = no effect, 100 = complete control, preemergence
[9] = 500 g ai/ha, visual rating, 0 = no effect, 100 = complete control, preemergence

With `CCN(CC)C(=O)c1cc(NC(=O)c2cc(C(C)(C)C)nn2CC)c(F)cc1F` [Compound 253] the “Wheat plant response rating” value (wheat; [6]) was 20, the “Wheat plant response rating” value (wheat; [7]) was 30 and the “Pigweed plant response rating” value (pigweed; [6]) was 20. For the same compound, the “Pigweed plant response rating” value (pigweed; [7]) was 30, the “Barnyardgrass plant response rating” value (barnyardgrass [1]) was 0 and the “Oat, Wild plant response rating” value (wild oat; [6]) was 20. The “Oat, Wild plant response rating” value (wild oat; [7]) was 30, the “Ducksalad plant response rating” value (ducksalad) was 60 and the “Velvetleaf plant response rating (0 to 100 scale)” value (velvetleaf; [8]) was 0. The “Plant response rating, Velvetleaf” value (velvetleaf; [9]) was 20, the “Velvetleaf plant response rating” value (velvetleaf; [6]) was 10 and the “Velvetleaf plant response rating” value (velvetleaf; [7]) was 10. The “Surinam Grass plant response rating (0 to 100 scale)” value (Surinam grass; [8]) was 10, the “Plant response rating, Surinam Grass” value (Surinam grass; [9]) was 30 and the “Surinam Grass plant response rating” value (Surinam grass; [6]) was 0. For the same compound, the “Surinam Grass plant response rating” value (Surinam grass; [7]) was 0, the “Sedge, Umbrella plant response rating” value [2] was 20 and the “Cocklebur plant response rating (0 to 100 scale)” value (cocklebur; [8]) was 0. The “Plant response rating, Cocklebur” value (cocklebur; [9]) was 0, the “Cocklebur plant response rating” value (cocklebur; 125 g ai/ha, visual rating) was 10 and the “Cocklebur plant response rating” value (cocklebur; 500 g ai/ha, visual rating) was 20. For the same compound, the “Barnyardgrass plant response rating (0 to 100 scale)” value (barnyardgrass [3]; [8]) was 0, the “Plant response rating, Barnyardgrass” value (barnyardgrass [3]; [9]) was 10 and the “Barnyardgrass plant response rating” value (barnyardgrass [3]; 125 g ai/ha, visual rating) was 0. For the same compound, the “Barnyardgrass plant response rating” value (barnyardgrass [3]; 500 g ai/ha, visual rating) was 10, the “Foxtail, Giant plant response rating (0 to 100 scale)” value (giant foxtail; [8]) was 0 and the “Plant response rating, Foxtail, Giant” value (giant foxtail; [9]) was 30. The “Foxtail, Giant plant response rating” value (giant foxtail; [6]) was 0, the “Foxtail, Giant plant response rating” value (giant foxtail; [7]) was 0 and the “Rice plant response rating (0 to 100 scale)” value (rice [4]; 125 g ai/ha) was 0. The “Plant response rating, Rice” value (rice [4]; 500 g ai/ha, visual rating) was 0, the “Rice plant response rating” value (rice [5]) was 50 and the “Morningglory plant response rating (0 to 100 scale)” value (morningglory; [8]) was 0. The “Plant response rating, Morningglory” value (morningglory; [9]) was 0, the “Morningglory plant response rating” value (morningglory; [6]) was 0 and the “Morningglory plant response rating” value (morningglory; [7]) was 30. For the same compound, the “Corn plant response rating (0 to 100 scale)” value (corn; [8]) was 0, the “Plant response rating, Corn” value (corn; [9]) was 0 and the “Corn plant response rating” value (corn; [6]) was 0. For the same compound, the “Corn plant response rating” value (corn; [7]) was 0, the “Lambsquarters plant response rating (0 to 100 scale)” value (lambsquarters; [8]) was 0 and the “Lambsquarters plant response rating” value (lambsquarters; [6]) was 20. For the same compound, the “Lambsquarters plant response rating” value (lambsquarters; [7]) was 30, the “Crabgrass, Large plant response rating (0 to 100 scale)” value (large crabgrass; [8]) was 20 and the “Crabgrass, Large plant response rating” value (large crabgrass; [6]) was 0. The “Crabgrass, Large plant response rating” value (large crabgrass; [7]) was 0, the “Blackgrass plant response rating” value (blackgrass; 125 g ai/ha) was 20 and the “Blackgrass plant response rating” value (blackgrass; 500 g ai/ha) was 20.
